Test results: paper PMC9412374, “Design, Synthesis, and Development of pyrazolo[1,5-a]pyrimidine Derivatives as a Novel Series of Selective PI3Kδ Inhibitors: Part I—Indole Derivatives” (Pharmaceuticals, 2022)
Converted amounts (≈) assume the structure as drawn. Like-named read-outs stand apart in the source and are kept apart here.

Key:
[1] = molecular target: T1, PI3Kδ (Homo sapiens, UniProt O00329); assay: In vitro kinase inhibition assay for PI3K (ADP-Glo), PI3Kδ; type: biochemical; conditions: recombinant kinase, mean of two independent experiments
T1 construct: purchased Merck Millipore
T1 sequence (P27986 whole entry): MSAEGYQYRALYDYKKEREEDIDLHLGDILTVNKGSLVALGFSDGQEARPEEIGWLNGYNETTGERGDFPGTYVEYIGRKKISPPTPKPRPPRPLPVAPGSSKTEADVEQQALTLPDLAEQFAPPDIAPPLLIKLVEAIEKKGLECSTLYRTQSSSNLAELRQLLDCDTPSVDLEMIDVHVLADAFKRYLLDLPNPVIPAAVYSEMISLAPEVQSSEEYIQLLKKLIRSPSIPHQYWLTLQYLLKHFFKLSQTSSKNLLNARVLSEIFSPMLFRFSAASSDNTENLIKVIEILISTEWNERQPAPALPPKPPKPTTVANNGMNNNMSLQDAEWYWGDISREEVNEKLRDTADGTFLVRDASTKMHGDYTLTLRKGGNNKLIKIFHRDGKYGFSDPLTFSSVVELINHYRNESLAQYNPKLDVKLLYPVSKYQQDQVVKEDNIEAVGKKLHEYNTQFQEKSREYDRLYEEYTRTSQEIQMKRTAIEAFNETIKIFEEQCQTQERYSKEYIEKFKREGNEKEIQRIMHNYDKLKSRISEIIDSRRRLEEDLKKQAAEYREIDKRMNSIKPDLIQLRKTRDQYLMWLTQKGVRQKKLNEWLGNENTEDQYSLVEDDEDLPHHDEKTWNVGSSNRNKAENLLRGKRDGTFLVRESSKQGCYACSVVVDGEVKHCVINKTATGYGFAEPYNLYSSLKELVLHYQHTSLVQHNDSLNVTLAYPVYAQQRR
T1 sequence (O00329 whole entry): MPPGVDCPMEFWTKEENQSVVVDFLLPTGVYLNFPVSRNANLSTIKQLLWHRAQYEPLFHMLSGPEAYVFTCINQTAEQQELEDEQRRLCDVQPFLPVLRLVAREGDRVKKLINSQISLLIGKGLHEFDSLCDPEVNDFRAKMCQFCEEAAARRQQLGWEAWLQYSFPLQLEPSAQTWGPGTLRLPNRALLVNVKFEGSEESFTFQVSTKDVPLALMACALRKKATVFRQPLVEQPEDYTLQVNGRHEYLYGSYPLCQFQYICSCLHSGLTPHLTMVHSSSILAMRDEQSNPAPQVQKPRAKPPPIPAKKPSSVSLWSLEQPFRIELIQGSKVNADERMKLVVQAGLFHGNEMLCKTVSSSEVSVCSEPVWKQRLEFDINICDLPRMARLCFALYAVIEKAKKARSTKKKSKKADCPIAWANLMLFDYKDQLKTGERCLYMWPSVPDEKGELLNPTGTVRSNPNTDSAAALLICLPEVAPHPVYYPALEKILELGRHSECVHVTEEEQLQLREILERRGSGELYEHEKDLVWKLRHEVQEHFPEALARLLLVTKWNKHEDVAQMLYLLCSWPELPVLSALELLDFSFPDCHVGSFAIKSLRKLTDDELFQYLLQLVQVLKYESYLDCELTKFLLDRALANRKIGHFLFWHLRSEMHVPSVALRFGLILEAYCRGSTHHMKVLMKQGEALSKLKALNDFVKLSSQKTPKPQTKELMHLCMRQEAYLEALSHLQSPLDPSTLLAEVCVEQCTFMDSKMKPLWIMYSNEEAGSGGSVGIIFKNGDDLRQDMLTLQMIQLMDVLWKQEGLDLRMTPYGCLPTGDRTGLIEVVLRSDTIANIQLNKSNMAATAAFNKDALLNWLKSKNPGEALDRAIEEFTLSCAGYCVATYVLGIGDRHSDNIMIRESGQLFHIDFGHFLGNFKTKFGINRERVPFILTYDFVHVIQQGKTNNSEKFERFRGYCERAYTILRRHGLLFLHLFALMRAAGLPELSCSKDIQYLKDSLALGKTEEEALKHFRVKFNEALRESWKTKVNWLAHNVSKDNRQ
Procedure: (§1) Tested compounds were dissolved in 100% DMSO, and obtained solutions were serially diluted in 1× reaction buffer. The recombinant kinase solution was diluted in a reaction mixture comprising 5× reaction buffer, respective compound solution (1 mM sodium diacetate 4,5-bisphosphate phosphatidylinositol (PIP2) solution in 40 mM Tris buffer), and water. In a 96-wells plate, 5 μL of compound solutions and 15 μL of the kinase solution in the reaction mixture were added per well. To initiate the interaction of chemical compounds to be tested with the enzyme, the plate was incubated for 10 min at a suitable temperature in a plate thermostat with orbital shaking at 600 rpm. Negative control wells contained all the above reagents except tested compound and kinase, and positive control wells contained all the above reagents except tested compounds. […] Subsequently, the plate was incubated for 1 h at 25 or 30 °C (depending on the PI3K isoform tested) in a plate thermostat with orbital shaking of the plate contents at 600 rpm. The reaction conditions are combined in the table below (Table 6).
(§2) Detection of ADP formed in the enzymatic reaction was then performed using ADP-Glo Kinase Assay™ (Promega, Madison, WI, USA). To the wells of a 96-well plate, 25 μL of ADP-Glo Reagent™ was added, and the plate was incubated for 40 min at 25 °C in a plate thermostat with orbital shaking at 600 rpm. Then 50 μL of Kinase Detection Reagent were added to each well, and the plate was incubated for 40 min at 25 °C in a plate thermostat with orbital shaking at 600 rpm. Once the incubation was complete, the luminescence intensity was measured using a Victor Light luminometer (Perkin Elmer, Inc., Waltham, MA, USA). IC50 values were determined based on luminescence intensity measured in wells containing tested compounds at different concentrations in relation to control wells. […] Each compound was tested at least in quadruplicates (4 wells) on two 96-well plates utilizing at least 4 wells for each control.

[2] = molecular target: T2, PI3Kα (Homo sapiens, UniProt P42336); assay: In vitro kinase inhibition assay for PI3K (ADP-Glo), PI3Kα; type: biochemical; conditions: for IC50: IC50 PI3K α, recombinant kinase, ADP-Glo, mean of two independent experiments; for Fold Selectivity α/δ: ratio of IC50 PI3Kα to IC50 PI3Kδ
T2 construct: purchased Carna Biosciences
T2 sequence (P42336 whole entry): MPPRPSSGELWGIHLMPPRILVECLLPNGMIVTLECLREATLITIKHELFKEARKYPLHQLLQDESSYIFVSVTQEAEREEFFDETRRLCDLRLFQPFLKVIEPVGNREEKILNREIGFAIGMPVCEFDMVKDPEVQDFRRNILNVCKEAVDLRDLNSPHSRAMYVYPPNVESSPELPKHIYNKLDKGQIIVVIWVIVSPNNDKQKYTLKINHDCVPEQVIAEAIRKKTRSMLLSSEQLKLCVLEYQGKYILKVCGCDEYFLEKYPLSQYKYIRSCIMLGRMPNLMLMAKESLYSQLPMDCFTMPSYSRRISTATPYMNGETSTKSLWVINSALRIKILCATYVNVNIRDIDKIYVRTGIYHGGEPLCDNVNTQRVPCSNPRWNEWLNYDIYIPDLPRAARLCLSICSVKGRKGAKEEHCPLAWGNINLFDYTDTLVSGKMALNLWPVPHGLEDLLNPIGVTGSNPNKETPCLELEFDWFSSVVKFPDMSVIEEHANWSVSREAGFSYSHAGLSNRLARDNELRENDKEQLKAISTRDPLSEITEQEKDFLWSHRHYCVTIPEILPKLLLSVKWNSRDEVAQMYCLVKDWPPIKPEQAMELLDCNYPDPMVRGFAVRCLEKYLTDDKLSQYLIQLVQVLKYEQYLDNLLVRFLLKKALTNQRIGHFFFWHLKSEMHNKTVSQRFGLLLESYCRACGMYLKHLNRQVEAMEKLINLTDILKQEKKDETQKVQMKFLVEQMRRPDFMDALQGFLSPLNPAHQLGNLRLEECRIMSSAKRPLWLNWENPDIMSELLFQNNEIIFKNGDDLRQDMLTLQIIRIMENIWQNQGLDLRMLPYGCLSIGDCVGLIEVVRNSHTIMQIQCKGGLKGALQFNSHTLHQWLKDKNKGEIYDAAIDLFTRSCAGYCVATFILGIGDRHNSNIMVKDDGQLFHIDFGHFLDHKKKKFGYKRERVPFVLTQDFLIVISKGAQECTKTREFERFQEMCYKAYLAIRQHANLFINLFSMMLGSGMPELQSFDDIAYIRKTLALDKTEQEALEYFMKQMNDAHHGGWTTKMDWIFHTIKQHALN
T2 sequence (P27986 whole entry partner): as the sequence (P27986 whole entry) above
Procedure: Tested compounds were dissolved in 100% DMSO, and obtained solutions were serially diluted in 1× reaction buffer. The recombinant kinase solution was diluted in a reaction mixture comprising 5× reaction buffer, respective compound solution (1 mM sodium diacetate 4,5-bisphosphate phosphatidylinositol (PIP2) solution in 40 mM Tris buffer), and water. In a 96-wells plate, 5 μL of compound solutions and 15 μL of the kinase solution in the reaction mixture were added per well. To initiate the interaction of chemical compounds to be tested with the enzyme, the plate was incubated for 10 min at a suitable temperature in a plate thermostat with orbital shaking at 600 rpm. Negative control wells contained all the above reagents except tested compound and kinase, and positive control wells contained all the above reagents except tested compounds. The enzymatic reaction was initiated by adding 5 μL of 150 μM ATP solution. Subsequently, the plate was incubated for 1 h at 25 or 30 °C (depending on the PI3K isoform tested) in a plate thermostat with orbital shaking of the plate contents at 600 rpm. The reaction conditions are combined in the table below (Table 6).
Detection of ADP formed in the enzymatic reaction was then performed using ADP-Glo Kinase Assay™ (Promega, Madison, WI, USA). To the wells of a 96-well plate, 25 μL of ADP-Glo Reagent™ was added, and the plate was incubated for 40 min at 25 °C in a plate thermostat with orbital shaking at 600 rpm. Then 50 μL of Kinase Detection Reagent were added to each well, and the plate was incubated for 40 min at 25 °C in a plate thermostat with orbital shaking at 600 rpm. Once the incubation was complete, the luminescence intensity was measured using a Victor Light luminometer (Perkin Elmer, Inc., Waltham, MA, USA). IC50 values were determined based on luminescence intensity measured in wells containing tested compounds at different concentrations in relation to control wells. These values were calculated with Graph Pad 5.03 software by fitting the curve using non-linear regression. Each compound was tested at least in quadruplicates (4 wells) on two 96-well plates utilizing at least 4 wells for each control. Averaged results of inhibition activity respective to specific isoforms of PI3K kinases for tested compounds are presented as IC50 values in Table 1, Table 2, Table 3 and Table 4.

[3] = molecular target: T3, PI3Kβ (Homo sapiens, UniProt P42338); assay: In vitro kinase inhibition assay for PI3K (ADP-Glo), PI3Kβ; type: biochemical; conditions: for Fold Selectivity β/δ: ratio of IC50 PI3Kβ to IC50 PI3Kδ
T3 construct: purchased Merck Millipore
T3 sequence (P42338 whole entry): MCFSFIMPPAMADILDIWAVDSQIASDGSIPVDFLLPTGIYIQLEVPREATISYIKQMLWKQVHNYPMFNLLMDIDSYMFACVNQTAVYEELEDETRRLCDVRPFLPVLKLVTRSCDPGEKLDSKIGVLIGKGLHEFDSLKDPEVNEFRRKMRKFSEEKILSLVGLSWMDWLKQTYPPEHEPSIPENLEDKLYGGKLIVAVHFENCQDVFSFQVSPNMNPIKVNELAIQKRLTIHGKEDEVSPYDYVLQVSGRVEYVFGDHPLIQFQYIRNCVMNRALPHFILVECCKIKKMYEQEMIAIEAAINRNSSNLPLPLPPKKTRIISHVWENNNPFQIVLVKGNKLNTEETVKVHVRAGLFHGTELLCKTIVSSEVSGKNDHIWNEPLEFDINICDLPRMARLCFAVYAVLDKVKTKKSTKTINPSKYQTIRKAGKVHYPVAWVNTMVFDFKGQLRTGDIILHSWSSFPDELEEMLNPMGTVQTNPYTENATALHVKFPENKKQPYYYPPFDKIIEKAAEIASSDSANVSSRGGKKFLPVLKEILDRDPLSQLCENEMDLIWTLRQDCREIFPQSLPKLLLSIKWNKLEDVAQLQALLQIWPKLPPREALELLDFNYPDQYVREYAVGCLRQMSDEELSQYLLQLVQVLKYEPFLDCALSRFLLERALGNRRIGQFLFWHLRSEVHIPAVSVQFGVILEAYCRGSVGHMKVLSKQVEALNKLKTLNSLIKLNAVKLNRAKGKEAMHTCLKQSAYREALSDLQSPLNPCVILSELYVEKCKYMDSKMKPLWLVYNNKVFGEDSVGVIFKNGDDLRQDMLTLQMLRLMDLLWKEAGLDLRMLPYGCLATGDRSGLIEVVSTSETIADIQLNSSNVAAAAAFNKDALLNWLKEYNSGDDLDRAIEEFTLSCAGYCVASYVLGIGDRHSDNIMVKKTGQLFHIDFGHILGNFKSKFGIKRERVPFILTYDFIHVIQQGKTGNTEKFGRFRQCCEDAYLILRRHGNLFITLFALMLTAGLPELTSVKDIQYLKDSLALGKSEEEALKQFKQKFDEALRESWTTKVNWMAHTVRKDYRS
T3 sequence (P27986 whole entry, further chain): as the sequence (P27986 whole entry) above
Procedure: as §1, §2

[4] = molecular target: T4, PI3Kγ (Homo sapiens, UniProt P48736); assay: In vitro kinase inhibition assay for PI3K (ADP-Glo), PI3Kγ; type: biochemical; conditions: for Fold Selectivity γ/δ: ratio of IC50 PI3Kγ to IC50 PI3Kδ
T4 construct: purchased Merck Millipore
T4 sequence (P48736 whole entry): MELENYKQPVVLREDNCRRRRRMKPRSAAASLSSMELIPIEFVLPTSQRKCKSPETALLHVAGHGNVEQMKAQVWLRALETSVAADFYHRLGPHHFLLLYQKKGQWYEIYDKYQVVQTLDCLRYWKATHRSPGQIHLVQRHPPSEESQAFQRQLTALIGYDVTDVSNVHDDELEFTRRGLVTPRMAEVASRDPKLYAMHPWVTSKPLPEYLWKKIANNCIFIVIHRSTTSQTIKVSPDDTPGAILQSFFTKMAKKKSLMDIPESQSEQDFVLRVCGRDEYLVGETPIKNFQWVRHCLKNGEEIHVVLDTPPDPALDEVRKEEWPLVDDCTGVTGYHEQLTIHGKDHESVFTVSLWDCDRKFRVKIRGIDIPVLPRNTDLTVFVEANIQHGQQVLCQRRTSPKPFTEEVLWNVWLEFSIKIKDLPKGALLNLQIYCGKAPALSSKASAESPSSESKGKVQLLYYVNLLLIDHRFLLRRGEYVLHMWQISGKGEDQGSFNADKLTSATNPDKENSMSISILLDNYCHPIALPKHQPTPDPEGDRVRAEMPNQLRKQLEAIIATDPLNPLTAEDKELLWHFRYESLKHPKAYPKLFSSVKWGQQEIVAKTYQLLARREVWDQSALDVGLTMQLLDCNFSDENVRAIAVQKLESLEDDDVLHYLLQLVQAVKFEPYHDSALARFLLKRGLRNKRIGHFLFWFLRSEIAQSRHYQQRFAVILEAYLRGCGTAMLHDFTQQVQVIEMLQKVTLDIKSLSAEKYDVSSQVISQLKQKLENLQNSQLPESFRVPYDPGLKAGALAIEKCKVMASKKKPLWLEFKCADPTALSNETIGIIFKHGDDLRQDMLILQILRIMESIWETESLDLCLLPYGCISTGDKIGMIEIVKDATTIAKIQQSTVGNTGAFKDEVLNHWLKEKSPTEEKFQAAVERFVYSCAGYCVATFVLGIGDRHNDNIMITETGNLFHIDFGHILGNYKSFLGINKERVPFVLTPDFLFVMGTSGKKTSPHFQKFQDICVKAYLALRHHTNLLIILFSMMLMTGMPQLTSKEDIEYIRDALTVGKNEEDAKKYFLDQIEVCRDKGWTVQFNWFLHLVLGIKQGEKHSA
Procedure: as §1, §2

[5] = system: CD19 cells; assay: B cells proliferation by flow cytometry (CFSE); type: cell-based; conditions: B-cell, 96 h, CD19 cells from PBMC, activated by αIgM and ODN2006, four days
Procedure: CD19 cells were isolated from PBMC using magnetic beads (Stem Cell, Cambridge, MA, USA) and then labeled with 2 µM CFSE (Invitrogen, Waltham, MA, USA).
After four days, cells were stained with LIVE/DEAD™ kit (Invitrogen, Waltham, MA, USA). Samples were acquired using Attune NxT Flow Cytometer (Invitrogen, Waltham, MA, USA) and analyzed using FlowJo software. Each biological assay was performed with cells isolated from a different donor. The presented results constitute the average value of the percentage of proliferating cells from 3 independent experiments.

[6] = Kinetic solubility, shake-flask protocol; type: physicochemical; conditions: aqueous buffer, kinetic from dmso stock, pH 7.4 phosphate-buffered saline, 25 °C, 500 µM compound
Procedure: Kinetic solubility was determined by the shake-flask protocol. Appropriate compounds (500 µM) were incubated in an aqueous buffer (0.1 M phosphate-buffered saline pH 7.4) at 25 °C with stirring at 500 rpm. The samples were taken at the start time and after 24 h of incubation, filtered through 0.22 µm filters, and diluted with two volumes of acetonitrile. UHPLC-UV/Vis determined sample concentrations. A calibration curve was prepared to quality the compound’s contents in the test solution.

[7] = Metabolic phase I stability in mouse microsomes; type: in vitro ADME; conditions: NADPH, 37 °C; for microsomal CLint at 1 μM: heading: MLM Cl; for half-life at 1 μM: read-out: MLM t1/2
Procedure: (§3) Assessment of metabolic phase I stability in mouse (CD-1™) and human microsomes (Thermo-Fisher Scientific, Waltham, MA, USA) was performed on 96-well non-binding plates (Greiner, Frickenhausen, Germany) at 1 μM concentration for verapamil (positive control) and donepezil (negative control) and tested compounds. Unless otherwise stated, all chemicals and materials were ordered from Merck Life Science (Palo Alto, CA, USA). Each biological replicate was prepared in triplicates. Briefly, mixtures were incubated in 100 mM potassium phosphate buffer with microsomes (0.5 mg/mL) and NADPH (1–1.2 mM) on a plate shaker (500 rpm) in the dark at 37 °C. A 4× solution of NADPH, a cofactor for metabolic enzymes, was prepared directly prior to the experiment by reducing NADP with G6P dehydrogenase (13.2 mM MgCl2, 13.2 mM G6P, 5.2 mM NADP, 3.2 U/mL G6P dehydrogenase, 20 min at 30 °C, 500 rpm). The negative control contained buffer instead of NADPH solution. Samples were collected at 0, 10, 20, and 40 min or 0 and 40 min for the negative and double negative controls. The reaction was stopped by protein precipitation in 2 volumes of ice-cold MeOH with 200 nM imipramine (an internal standard for LC-MS analysis). Then, the extract was mixed (1 min, 1000 rpm), filtered through a 0.22 μm filter on a 96-well plate vacuum manifold, and subjected to LC-MS analysis.

[8] = Metabolic phase I stability in human microsomes; type: in vitro ADME; conditions: human microsomes 0.5 mg/mL, NADPH, 37 °C; for half-life at 1 μM: read-out: HLM t1/2
Procedure: as §3

[9] = CD-1, liver microsomes, mouse microsomes 0.5 mg/mL

Q: Which IC50 ([1]; read-out: IC50 PI3K δ) does the source give for `CC(C)(C)N1CCN(Cc2cc3nc(-c4cccc5[nH]ccc45)cc(N4CCOCC4)n3n2)CC1` [Compound 37, 2-((4-tert-butylpiperazin-1-yl)methyl)-5-(1H-indol-4-yl)-7-(morpholin-4-yl)pyrazolo[1,5-a]pyrimidine] here?
A: 6.6 nM

Q: And the IC50 [2]?
A: 12500 nM

Q: And the “Fold Selectivity α/δ” value [2]?
A: 1889

Q: What about the “Fold Selectivity β/δ” value [3] of the same molecule?
A: 829

Q: And the IC50 ([3]; recombinant kinase, ADP-Glo, mean of two independent experiments, read-out: IC50 PI3K β)?
A: 5470 nM

Q: What about the “Fold Selectivity γ/δ” value [4] of the same molecule?
A: >9091

Q: What about the IC50 ([4]; recombinant kinase, ADP-Glo, mean of two independent experiments, read-out: IC50 PI3K γ) of the same molecule?
A: > 60000 nM

Q: What about the IC50 [5] of the same molecule?
A: 20 nM

Q: And the solubility kinetic at 24 h [6]?
A: 444 µM (≈ 210 µg/mL)

Q: What about the microsomal CLint at 1 μM [7, 9] of the same molecule?
A: 13.7 µL/min/mg

Q: What about the half-life at 1 μM [7, 9] of the same molecule?
A: 2.1 h

Q: What about the microsomal CLint at 1 μM ([8]; liver microsomes, heading: HLM Cl) of the same molecule?
A: 22.8 µL/min/mg

Q: And the half-life at 1 μM ([8]; liver microsomes)?
A: 1.27 h

Q: With `CC(C)(C)N1CCN(Cc2cc3nc(-c4cncc5[nH]ccc45)cc(N4CCOCC4)n3n2)CC1` [Compound 54, 2-((4-tert-butylpiperazin-1-yl)methyl)-5-(1H-pyrrolo [2,3-c]pyridin-4-yl)-7-(morpholin-4-yl)pyrazolo[1,5-a]pyrimidine] as the molecule, how does the IC50 ([1]; IC50 PI3K δ) read?
A: 2.8 nM

Q: And the IC50 [2]?
A: 2670 nM

Q: What about the “Fold Selectivity α/δ” value [2] of the same molecule?
A: 954

Q: What about the IC50 [3] of the same molecule?
A: 21600 nM

Q: What about the “Fold Selectivity β/δ” value [3] of the same molecule?
A: 7714

Q: And the IC50 [4]?
A: 34400 nM

Q: And the “Fold Selectivity γ/δ” value [4]?
A: 12,286

Q: And the IC50 [5]?
A: 19 nM

Q: What about the solubility kinetic at 24 h [6] of the same molecule?
A: > 500 µM

Q: And the microsomal CLint at 1 μM ([7]; CD-1, microsomes, mouse microsomes 0.5 mg/mL)?
A: 7 µL/min/mg

Q: What about the half-life at 1 μM ([7]; CD-1, mouse microsomes 0.5 mg/mL) of the same molecule?
A: 3.3 h

Q: And the half-life at 1 μM [8]?
A: 6.17 h
